Experimental data as given in US20100022614A1, “PHARMACEUTICAL COMPOSITION FOR EXTERNAL APPLICATION AND ADHESIVE SKIN PATCH” (priority 2006, published 2010).

How the values were obtained:
Assay type in all cases: physicochemical
[1] = Drug stability test (Test Example 5, FIG. 4): loxoprofen sodium or felbinac in lactic acid with NMP; conditions: 0.1 g drug in 5 g lactic acid with 1 g or 10 g NMP; autoclaving 120° C.
Procedure: By a similar procedure to Test Example 3 except that either 1 g or 10 g of N-methyl-2-pyrrolidone was further mixed with a mixed solution of 0.1 g of loxoprofen sodium or felbinac and 5 g of lactic acid, the mass of the drug being present in each solvent system was measured.

[2] = Drug solubility test (Test Example 1): amount of LOX dissolved in 1 g of additive, visual observation
Procedure: The amount of dissolution of loxoprofen sodium (LOX) with respect to 1 g of each additive was determined by visual observation.

[3] = Drug stability test (Test Example 2): loxoprofen sodium in solvent systems left at 60° C., HPLC; conditions: for Loxoprofen sodium content (%) (vs. initial value): 60° C.
Procedure: To each solvent was added 0.1 g of loxoprofen sodium, and the mixture was stirred at 25° C. overnight. The stirred mixture was filtrated to obtain a filtrate for use as a sample solution, and this sample solution was left to stand at 60° C. Thereafter, the mass of loxoprofen sodium being present in each solvent system was measured with high performance liquid chromatography (HPLC) 0 months later (initial value), 0.5 months later, and 1.0 month later. The results are shown in FIG. 1 and Table 2 in terms of the ratio of each measurement with respect to the initial value.

[4] = Drug stability test (Test Example 3): loxoprofen sodium in solvent systems, autoclaving at 120° C.; conditions: for Loxoprofen sodium content (%) (vs. initial value): autoclaving 120° C.
Procedure: To each solvent was added 0.1 g of loxoprofen sodium, and the mixture was stirred at 25° C. overnight. The stirred mixture was filtrated to obtain a filtrate for use as a sample solution. This sample solution was subjected to an autoclaving treatment at 120° C., and the mass of loxoprofen sodium being present in each solvent system was measured at time 0 (initial value), 2 hrs later, 4 hrs later, and 6 hrs later. The results are shown in FIG. 2 and Table 3 in terms of the ratio of each measurement with respect to the initial value. The measurement procedure was similar to Test Example 2.

[5] = Drug stability test (Test Example 4, FIG. 3): loxoprofen/lactic acid with additives, with or without NMP; conditions: for stability of LOX (in words): NMP added to LOX
Procedure: By a similar procedure to Test Example 3 except that 1 g of an additive (aspartic acid, isostearic acid, disodium edetate, a carboxyvinyl polymer or polyvinylpyrrolidone) was added to a mixed solution of 0.1 g of loxoprofen and 5 g of lactic acid, the mass of loxoprofen sodium being present in each solvent system was measured.
In addition, by a similar procedure to Test Example 3 except that 1 g of N-methyl-2-pyrrolidone, and 1 g of an additive (aspartic acid, isostearic acid, disodium edetate, the carboxyvinyl polymer or polyvinylpyrrolidone) were further mixed, the mass of loxoprofen sodium being present in each solvent system was measured. The results are shown in FIG. 3 in terms of the ratio of each measurement with respect to the initial value.

[6] = Drug stability test (Test Example 6, FIG. 5): diclofenac sodium in lactic acid or glycerin with NMP; conditions: autoclaving 120° C.
Procedure: By a similar procedure to Test Example 5 except that a mixed solution of 0.1 g of diclofenac sodium and 5 g of lactic acid or glycerin was used, the mass of the drug being present in each solvent system was measured.

[7] = Drug stability test (Test Example 7, FIG. 6): tulobuterol in acetic acid with NMP; conditions: 0.1 g drug in 5 g acetic acid with 1 g or 10 g NMP; autoclaving 120° C.
Procedure: By a similar procedure to Test Example 5 except that a mixed solution of 0.1 g of tulobuterol and 5 g of acetic acid was used, the mass of the drug being present in each solvent system was measured.

CC(C(=O)O)c1ccc(CC2CCCC2=O)cc1 (centres unmarked) [LOX, loxoprofen sodium]
stability of the drug (FIG. 4, in words) [1]: significantly improved
amount of dissolution of loxoprofen sodium (in words) ([2]; lactic acid and N-methyl-2-pyrrolidone used in combination): markedly great
amount of dissolution of loxoprofen sodium (in words) ([2]; lactic acid or N-methyl-2-pyrrolidone used alone, or other composition): significantly small
Amount of dissolved LOX ([2]; per 1 g of additive: 10% Citric anhydride + NMP, mixing ratio 1:10): 0.1 g
Amount of dissolved LOX ([2]; per 1 g of additive: 20% Citric anhydride + NMP, mixing ratio 1:5): 0.1 g
Amount of dissolved LOX ([2]; per 1 g of additive: 89% Phosphoric acid): 0.25 g
Amount of dissolved LOX ([2]; per 1 g of additive: Behenic acid + NMP, mixing ratio 1:1): 0 g
Amount of dissolved LOX ([2]; per 1 g of additive: Cetyl lactate + NMP, mixing ratio 1:4): 0 g
Amount of dissolved LOX ([2]; per 1 g of additive: Crotamiton): 0 g
Amount of dissolved LOX ([2]; per 1 g of additive: Isostearic acid + NMP, mixing ratio 1:1): 0 g
Amount of dissolved LOX ([2]; per 1 g of additive: L-menthol + NMP, mixing ratio 1:1): 0 g
Amount of dissolved LOX ([2]; per 1 g of additive: Lactic acid): 0.25 g
Amount of dissolved LOX ([2]; per 1 g of additive: Lactic acid + NMP, mixing ratio 1:2): 1.5 g
Amount of dissolved LOX ([2]; per 1 g of additive: Malic acid + NMP, mixing ratio 1:4): 0 g
Amount of dissolved LOX ([2]; per 1 g of additive: Myristic acid + NMP, mixing ratio 1:10): 0 g
Amount of dissolved LOX ([2]; per 1 g of additive: NMP): 0 g
Amount of dissolved LOX ([2]; per 1 g of additive: Oleyl alcohol): 0 g
Amount of dissolved LOX ([2]; per 1 g of additive: Peppermint oil): 0 g
Amount of dissolved LOX ([2]; per 1 g of additive: Phosphoric acid (89%) + NMP, mixing ratio 1:2): 0 g
Amount of dissolved LOX ([2]; per 1 g of additive: Polyethylene glycol 400): 0.25 g
Amount of dissolved LOX ([2]; per 1 g of additive: Stearic acid + NMP, mixing ratio 1:1): 0 g
Amount of dissolved LOX ([2]; per 1 g of additive: Tartaric acid + NMP, mixing ratio 1:2): 0 g
Amount of dissolved LOX ([2]; per 1 g of additive: Triacetin): 0 g
Loxoprofen sodium content (%) (vs. initial value) ([3]; solvent system Conc. glycerin 5 g, 0.5 months later): 87.2%
Loxoprofen sodium content (%) (vs. initial value) ([3]; solvent system Conc. glycerin 5 g, 1.0 month later): 82.4%
Loxoprofen sodium content (%) (vs. initial value) ([3]; solvent system Lactic acid 5 g + NMP0.1 g, 0.5 months later): 88.2%
Loxoprofen sodium content (%) (vs. initial value) ([3]; solvent system Lactic acid 5 g + NMP0.1 g, 1.0 month later): 82.7%
Loxoprofen sodium content (%) (vs. initial value) ([3]; solvent system Lactic acid 5 g + NMP1.0 g, 0.5 months later): 91.3%
Loxoprofen sodium content (%) (vs. initial value) ([3]; solvent system Lactic acid 5 g + NMP1.0 g, 1.0 month later): 85.8%
Loxoprofen sodium content (%) (vs. initial value) ([3]; solvent system Lactic acid 5 g + NMP10.0 g, 0.5 months later): 99.8%
Loxoprofen sodium content (%) (vs. initial value) ([3]; solvent system Lactic acid 5 g + NMP10.0 g, 1.0 month later): 99.4%
Loxoprofen sodium content (%) (vs. initial value) ([3]; solvent system Lactic acid 5 g, 0.5 months later): 83.1%
Loxoprofen sodium content (%) (vs. initial value) ([3]; solvent system Lactic acid 5 g, 1.0 month later): 79.9%
Loxoprofen sodium content (%) (vs. initial value) ([3]; solvent system Peppermint oil 5 g, 0.5 months later): 83.2%
Loxoprofen sodium content (%) (vs. initial value) ([3]; solvent system Peppermint oil 5 g, 1.0 month later): 77.7%
time dependent lowering of the content of loxoprofen sodium (in words) ([3]; solvent system of conc. glycerin, “polysorbate 80”, mentha oil or lactic acid): greatly exhibited
Loxoprofen sodium content (%) (vs. initial value) ([3]; solvent system “Polysorbate 80 g” 5 g, 0.5 months later): 83.5%
Loxoprofen sodium content (%) (vs. initial value) ([3]; solvent system “Polysorbate 80 g” 5 g, 1.0 month later): 69.1%
Loxoprofen sodium content (%) (vs. initial value) ([4]; solvent system Lactic acid 5 g + NMP0.1 g, 2 hrs): 96.0%
Loxoprofen sodium content (%) (vs. initial value) ([4]; solvent system Lactic acid 5 g + NMP0.1 g, 4 hrs): 90.7%
Loxoprofen sodium content (%) (vs. initial value) ([4]; solvent system Lactic acid 5 g + NMP0.1 g, 6 hrs): 87.4%
Loxoprofen sodium content (%) (vs. initial value) ([4]; solvent system Lactic acid 5 g + NMP1.0 g, 2 hrs): 98.0%
Loxoprofen sodium content (%) (vs. initial value) ([4]; solvent system Lactic acid 5 g + NMP1.0 g, 4 hrs): 94.2%
Loxoprofen sodium content (%) (vs. initial value) ([4]; solvent system Lactic acid 5 g + NMP1.0 g, 6 hrs): 91.9%
Loxoprofen sodium content (%) (vs. initial value) ([4]; solvent system Lactic acid 5 g + NMP10.0 g, 2 hrs): 99.4%
Loxoprofen sodium content (%) (vs. initial value) ([4]; solvent system Lactic acid 5 g + NMP10.0 g, 4 hrs): 99.8%
Loxoprofen sodium content (%) (vs. initial value) ([4]; solvent system Lactic acid 5 g + NMP10.0 g, 6 hrs): 99.6%
Loxoprofen sodium content (%) (vs. initial value) ([4]; solvent system Lactic acid 5 g, 2 hrs): 94.8%
Loxoprofen sodium content (%) (vs. initial value) ([4]; solvent system Lactic acid 5 g, 4 hrs): 90.3%
Loxoprofen sodium content (%) (vs. initial value) ([4]; solvent system Lactic acid 5 g, 6 hrs): 86.8%
time dependent lowering of the content of loxoprofen sodium (in words) ([4]; solvent system including lactic acid and N-methyl-2-pyrrolidone (Tables 2 to 3, FIGS. 1 to 2)): markedly suppressed
stability of LOX (in words) ([5]; lactic acid and adipic acid): favorable stability
stability of LOX (in words) ([5]; lactic acid and benzoic acid): favorable stability
content of LOX versus control group without the additive (FIG. 3) ([5]; lactic acid 5 g + 1 g additive having a carboxylic acid group (aspartic acid, isostearic acid, disodium edetate, carboxyvinyl polymer), irrespective of the presence of NMP, 120° C.): almost a similar level to the LOX content in the control group
content of LOX versus control group (FIG. 3) ([5]; lactic acid 5 g + 1 g polyvinylpyrrolidone, irrespective of the presence of NMP, 120° C.): increased to a level higher than the content of LOX in the control group

O=C(O)Cc1ccccc1Nc1c(Cl)cccc1Cl [diclofenac sodium]
reduction of stability caused by blending glycerin, effect of adding NMP (FIG. 5) ([6]; 0.1 g drug in 5 g glycerin with 1 g or 10 g NMP): compensated
reduction of stability caused by blending lactic acid, effect of adding NMP (FIG. 5) ([6]; 0.1 g drug in 5 g lactic acid with 1 g or 10 g NMP): greatly compensated

O=C(O)Cc1ccc(-c2ccccc2)cc1 [felbinac]
stability of the drug (FIG. 4, in words) [1]: significantly improved

CC(C)(C)NCC(O)c1ccccc1Cl (centres unmarked) [tulobuterol]
stability of the drug (FIG. 6, in words) [7]: greatly improves
